# The supplement of paper PMC10307832
# Assays:
# Test in all cases: relative viability (nuclei count vs DMSO), 5 days (fraction); higher = more cells survive
# Trametinib + Palbociclib = compound: CC(=O)Nc1cccc(-n2c(=O)n(C3CC3)c(=O)c3c(Nc4ccc(I)cc4F)n(C)c(=O)c(C)c32)c1 [Trametinib] + CC(=O)c1c(C)c2cnc(Nc3ccc(N4CCNCC4)cn3)nc2n(C2CCCC2)c1=O [Palbociclib] (partner 0.5 µM)
# Procedure, shortened: (§1)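 Five library-drug doses in √10 steps were combined with a fixed anchor-drug dose, or a single drug was given alone, by pin tool to lung cancer cell lines in 1536-well plates the day after seeding. Nuclei were stained and counted after 5 days. Relative viability is the nuclei count in treated wells over that in vehicle wells, taken as the median of duplicate plates.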
# [1] = compound: CN1C=C(C2=CC=CC=C21)/C=C\3/C4=C(C=CC=N4)NC3=O + CC(C)C[C@H](NC(=O)[C@H](Cc1ccccc1)NC(=O)c1cnccn1)B(O)O [Bortezomib] (partner 0.002 µM)
# Procedure, shortened: as §1
# Trametinib + Lapatinib = compound: CC(=O)Nc1cccc(-n2c(=O)n(C3CC3)c(=O)c3c(Nc4ccc(I)cc4F)n(C)c(=O)c(C)c32)c1 [Trametinib] + CS(=O)(=O)CCNCc1ccc(-c2ccc3ncnc(Nc4ccc(OCc5cccc(F)c5)c(Cl)c4)c3c2)o1 [Lapatinib] (partner 2 µM)
# Procedure, shortened: as §1
# [2] = compound: CN1C=C(C2=CC=CC=C21)/C=C\3/C4=C(C=CC=N4)NC3=O + COc1cc2c(Oc3ccc(NC(=O)C4(C(=O)Nc5ccc(F)cc5)CC4)cc3F)ccnc2cc1OCCCN1CCOCC1 [Foretinib] (partner 0.25 µM)
# Procedure, shortened: as §1
Cell Line,relative viability (Trametinib + Palbociclib; first compound 0.0025 µM),relative viability (Trametinib + Palbociclib; first compound 0.007906 µM),relative viability (Trametinib + Palbociclib; first compound 0.025 µM),relative viability (Trametinib + Palbociclib; first compound 0.07906 µM),relative viability (Trametinib + Palbociclib; first compound 0.25 µM),relative viability ([1]; first compound 0.02 µM),relative viability ([1]; first compound 0.06325 µM),relative viability ([1]; first compound 0.2 µM),relative viability ([1]; first compound 0.6325 µM),relative viability ([1]; first compound 2 µM),relative viability (Trametinib + Lapatinib; first compound 0.0025 µM),relative viability (Trametinib + Lapatinib; first compound 0.007906 µM),relative viability (Trametinib + Lapatinib; first compound 0.025 µM),relative viability (Trametinib + Lapatinib; first compound 0.07906 µM),relative viability (Trametinib + Lapatinib; first compound 0.25 µM),relative viability ([2]; first compound 0.02 µM),relative viability ([2]; first compound 0.06325 µM),relative viability ([2]; first compound 0.2 µM),relative viability ([2]; first compound 0.6325 µM),relative viability ([2]; first compound 2 µM)
SK-LU-1,0.416,0.319,0.307,0.296,0.259,0.806,0.892,0.908,0.858,1.39,0.791,0.721,0.538,0.426,0.304,0.596,0.705,0.869,0.713,0.992
ABC-1,0.448,0.668,0.357,0.49,0.338,0.368,0.257,0.285,0.299,0.372,0.789,1.16,1.18,1.13,1.2,0.929,1.08,1.16,1.13,1.13
NCI-H2085,0.494,0.421,0.371,0.395,0.406,0.993,1.07,0.995,1.07,1.04,0.783,0.707,0.426,0.668,0.549,1.1,0.843,0.998,1.02,1.02
NCI-H2087,0.162,0.137,0.127,0.111,0.0967,0.812,0.815,0.882,0.839,0.836,1.1,0.665,0.496,0.254,0.18,1.05,1.11,1.3,1.04,1.04
NCI-H322M,0.448,0.428,0.404,0.43,0.431,1.22,1.28,1.22,1.31,1.25,0.59,0.469,0.443,0.388,0.455,0.905,0.993,0.887,0.946,1.12
NCI-H1734,0.337,0.353,,0.292,0.241,0.91,0.851,,0.859,1.02,1.02,1.01,,1.03,0.517,0.928,0.875,,0.904,1.03
NCI-H2228,0.649,0.595,0.57,0.369,0.235,0.882,0.834,,0.887,1.19,0.881,0.513,0.765,0.734,0.286,0.95,0.764,,,0.823
EKVX,0.375,0.401,0.173,0.182,0.182,1.05,0.79,0.946,1.04,0.972,0.177,0.154,0.136,0.155,0.157,0.877,0.842,0.806,0.662,0.773
NCI-H1975,0.543,0.349,0.506,0.19,0.129,0.431,0.36,0.344,0.322,0.317,0.816,0.725,0.534,0.385,0.292,0.87,0.918,0.83,0.697,0.837
NCI-H1666,0.695,0.662,0.665,0.66,0.686,1,0.77,0.542,0.692,0.709,0.354,0.414,0.405,0.387,0.265,0.972,0.991,0.938,0.879,1.02
PC-3 [JPC-3],0.556,0.581,0.483,,0.575,0.7,0.893,0.804,0.838,0.761,0.451,0.425,0.425,0.404,0.377,1.06,1.02,0.987,0.973,1.05
NCI-H1755,0.425,0.406,0.384,0.392,0.365,0.953,0.889,0.868,0.953,0.87,0.969,0.897,0.849,0.871,0.863,0.813,0.83,0.899,0.838,0.833
